Laboratory results reported in patent publication US8772480B2, “Inhibitors of PI3 kinase and/or mTOR” (priority 2009, dated 2014).

What was measured:
[1] = molecular target: PI3Kα (Homo sapiens (Human), UniProt P42336); conditions: read-out: PI3Kα AlphaScreen ® Ki
[2] = test system: phosphorylation of Akt at Serine 473 in U87 MG cells; test: cells; conditions: Homo sapiens, U-87 MG, 2 h, read-out: U87Cell IC50, pAkt (Ser 473), U87 MG cells, two hours with compound

Chain of PI3Kα (P42336 whole entry): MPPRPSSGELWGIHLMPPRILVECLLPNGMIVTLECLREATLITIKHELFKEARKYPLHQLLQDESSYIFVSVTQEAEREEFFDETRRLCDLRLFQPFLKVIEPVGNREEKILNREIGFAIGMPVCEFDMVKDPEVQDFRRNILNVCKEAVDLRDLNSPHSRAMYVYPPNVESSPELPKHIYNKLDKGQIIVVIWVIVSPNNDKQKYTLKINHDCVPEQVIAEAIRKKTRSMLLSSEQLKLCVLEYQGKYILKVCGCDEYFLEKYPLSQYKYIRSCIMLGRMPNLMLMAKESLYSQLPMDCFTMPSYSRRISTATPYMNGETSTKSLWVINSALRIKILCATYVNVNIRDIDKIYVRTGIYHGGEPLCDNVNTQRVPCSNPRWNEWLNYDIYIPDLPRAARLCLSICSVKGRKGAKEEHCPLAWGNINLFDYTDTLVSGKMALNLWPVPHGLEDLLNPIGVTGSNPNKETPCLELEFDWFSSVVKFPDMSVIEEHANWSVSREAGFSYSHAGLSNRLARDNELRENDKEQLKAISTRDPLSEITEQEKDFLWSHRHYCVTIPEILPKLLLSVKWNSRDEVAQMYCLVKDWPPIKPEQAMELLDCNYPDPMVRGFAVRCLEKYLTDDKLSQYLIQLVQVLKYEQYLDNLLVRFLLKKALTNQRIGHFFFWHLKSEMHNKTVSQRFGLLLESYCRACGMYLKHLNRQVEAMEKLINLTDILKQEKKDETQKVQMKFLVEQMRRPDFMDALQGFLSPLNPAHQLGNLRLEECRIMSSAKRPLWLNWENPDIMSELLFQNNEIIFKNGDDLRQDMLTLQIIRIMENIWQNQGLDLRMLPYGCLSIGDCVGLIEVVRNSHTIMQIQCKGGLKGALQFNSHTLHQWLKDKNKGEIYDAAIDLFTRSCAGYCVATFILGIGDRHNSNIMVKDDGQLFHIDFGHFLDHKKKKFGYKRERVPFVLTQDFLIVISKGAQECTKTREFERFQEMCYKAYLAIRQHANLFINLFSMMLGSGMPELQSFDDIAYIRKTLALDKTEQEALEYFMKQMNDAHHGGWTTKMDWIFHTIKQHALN
Chain of PI3Kα (P27986 whole entry partner): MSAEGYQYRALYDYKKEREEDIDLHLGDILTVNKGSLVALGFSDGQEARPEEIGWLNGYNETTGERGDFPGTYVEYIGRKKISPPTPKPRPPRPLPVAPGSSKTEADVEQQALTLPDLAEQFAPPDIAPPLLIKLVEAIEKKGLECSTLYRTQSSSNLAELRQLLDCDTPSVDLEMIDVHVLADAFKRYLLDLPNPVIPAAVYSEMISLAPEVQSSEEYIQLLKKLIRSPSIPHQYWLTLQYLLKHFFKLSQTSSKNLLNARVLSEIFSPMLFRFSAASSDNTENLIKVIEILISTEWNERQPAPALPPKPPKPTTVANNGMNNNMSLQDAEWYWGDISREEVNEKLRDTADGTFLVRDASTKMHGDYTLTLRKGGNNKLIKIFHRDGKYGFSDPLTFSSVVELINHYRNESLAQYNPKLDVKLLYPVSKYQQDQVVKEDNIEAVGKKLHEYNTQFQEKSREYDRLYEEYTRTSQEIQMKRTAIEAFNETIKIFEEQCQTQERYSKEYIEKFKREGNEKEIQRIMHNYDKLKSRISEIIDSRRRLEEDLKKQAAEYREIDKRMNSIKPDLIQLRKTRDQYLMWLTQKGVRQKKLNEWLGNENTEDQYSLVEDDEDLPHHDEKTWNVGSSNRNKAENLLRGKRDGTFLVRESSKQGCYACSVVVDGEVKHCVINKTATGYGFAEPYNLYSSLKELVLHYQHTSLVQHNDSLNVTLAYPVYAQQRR

| Structure (SMILES) | Ki [1] [nM] | IC50 [2] [nM] |
| --- | --- | --- |
| COc1ncc(Nc2ncc([C@@H](C)N3CCN(S(C)(=O)=O)C[C@@H]3C)cc2-c2nc(C)nc(N)n2)cn1 [Example 362, 4-(2-(2-Methoxypyrimidin-5-Ylamino)-5-((R)-1-((S)-2-Methyl-4-(Methylsulfonyl)Piperazin-1-yl)Ethyl)Pyridin-3-yl)-6-Methyl-1,3,5-Triazin-2-Amine] | 2 | 10 |
| COCCOc1cnc(Nc2cnc(OC)c(NS(C)(=O)=O)c2)c(-c2nc(C)nc(N)n2)c1 [Example 336, N-(5-(3-(4-Amino-6-Methyl-1,3,5-Triazin-2-yl)-5-(2-Methoxyethoxy)Pyridin-2-Ylamino)-2-Methoxypyridin-3-yl)Methanesulfonamide] | 55 | 36 |
| COc1ccc(Nc2ncc(C(O)c3ccc(S(=O)(=O)N(C)C)cc3)cc2-c2nc(C)nc(N)n2)cn1 (centres unmarked) [Example 236, 4-((5-(4-Amino-6-Methyl-1,3,5-Triazin-2-yl)-6-(6-Methoxypyridin-3-Ylamino)Pyridin-3-yl)(Hydroxy)Methyl)-N,N-Dimethylbenzenesulfonamide] | 4 | > 10000 |
| COc1ccc(Nc2nc(N(C)C)ncc2-c2nc(C)nc(N)n2)cn1 [Example 121, 5-(4-amino-6-methyl-1,3,5-triazin-2-yl)-N4-(6-methoxypyridin-3-yl)-N2,N2-dimethylpyrimidine-2,4-diamine] | 45 | 190 |
| Cc1nc(N)nc(-c2cccnc2Nc2ccc(F)c(F)c2)n1 [Example 248] | 442 | 2300 |
| COc1ccc(Nc2ncc(CNc3cccnn3)cc2-c2nc(C)nc3[nH]cnc23)cn1 [Example 80, N-((6-(6-methoxypyridin-3-ylamino)-5-(2-methyl-9H-purin-6-yl)pyridin-3-yl)methyl)pyridazin-3-amine] | 33 | 305 |
| COc1ccc(Nc2ncc(C3(N4CCN(S(C)(=O)=O)CC4)CC3)cc2-c2nc(C)nc(N)n2)cn1 [Example 282, 4-(2-(6-Methoxypyridin-3-Ylamino)-5-(1-(4-(Methylsulfonyl)Piperazin-1-yl)Cyclopropyl)Pyridin-3-yl)-6-Methyl-1,3,5-Triazin-2-Amine] | 7 | 26 |
| COc1cnc(Nc2cnc(Cl)c(N)c2)c(-c2nc(C)nc(N)n2)c1 [Example 368, N5-(3-(4-Amino-6-Methyl-1,3,5-Triazin-2-yl)-5-Methoxypyridin-2-yl)-2-Chloropyridine-3,5-Diamine] | 270 | 117 |
| Cc1nc(N)nc(-c2cc(CN3CCN(S(C)(=O)=O)CC3)cnc2Nc2ccc3scnc3c2)n1 [Example 240, N-(3-(4-Amino-6-Methyl-1,3,5-Triazin-2-yl)-5-((4-(Methylsulfonyl)Piperazin-1-yl)Methyl)Pyridin-2-yl)Benzo[D]Thiazol-5-Amine] | 8 | 43 |
| CCNc1cnc(Nc2ccc(OC)nc2)c(-c2nc(C)nc3[nH]cnc23)c1 [Example 94, N5-ethyl-N2-(6-methoxypyridin-3-yl)-3-(2-methyl-9H-purin-6-yl)pyridine-2,5-diamine] | 181 | 1230 |
| COc1ncc(Nc2ncc(C(C)(C)O)cc2-c2nc(C)nc(N)n2)cc1C [Example 354, 2-(5-(4-Amino-6-Methyl-1,3,5-Triazin-2-yl)-6-(6-Methoxy-5-Methylpyridin-3-Ylamino)Pyridin-3-yl)Propan-2-ol] | 12 | 37 |
| COc1ccc(Nc2ncc(N3CCC[C@@H]3CO)cc2-c2nc(C)nc3[nH]cnc23)cn1 [Example 101, ((2R)-1-(6-(6-Methoxypyridin-3-Ylamino)-5-(2-Methyl-9H-Purin-6-yl)Pyridin-3-yl)Pyrrolidin-2-yl)Methanol] | 40 | 293 |
| Cc1ccc2cc(Nc3ncccc3-c3nc(C)nc(N)n3)ccc2n1 [Example 171, N-(3-(4-Amino-6-Methyl-1,3,5-Triazin-2-yl)Pyridin-2-yl)-2-Methylquinolin-6-Amine] | 611 | > 10000 |
| COc1ncc(Nc2ncc(C(C)N3CCN(C(=O)N(C)C)CC3)cc2-c2nc(C)nc(N)n2)cc1F (centres unmarked) [Example 294, 4-(1-(5-(4-Amino-6-Methyl-1,3,5-Triazin-2-yl)-6-(5-Fluoro-6-Methoxypyridin-3-Ylamino)Pyridin-3-yl)Ethyl)-N,N-Dimethylpiperazine-1-Carboxamide] | 12 | 90 |
| COc1ccc(Nc2ncc(CN3CCN(S(C)(=O)=O)CC3)cc2-c2cc(N)nc(C)n2)cn1 [Example 178, 6-(2-(6-Methoxypyridin-3-Ylamino)-5-((4-(Methylsulfonyl)Piperazin-1-yl)Methyl)Pyridin-3-yl)-2-Methylpyrimidin-4-Amine] | 6 | 50 |
| COc1ccc(Nc2nc(-c3ccc(F)cc3)ncc2-c2nc(C)nc(N)n2)cn1 [Example 125, 4-(2-(4-fluorophenyl)-4-(6-methoxypyridin-3-ylamino)pyrimidin-5-yl)-6-methyl-1,3,5-triazin-2-amine] | 504 | > 10000 |

| Structure (SMILES) | Ki [1] [nM] | IC50 [2] [nM] |
| --- | --- | --- |
| COc1ccc(Nc2ncc(CNc3ccccc3)cc2-c2nc(C)nc3[nH]cnc23)cn1 [Example 83, N-(6-methoxypyridin-3-yl)-3-(2-methyl-9H-purin-6-yl)-5-((phenylamino)methyl)pyridin-2-amine] | 45 | 700 |
| CC(=O)Nc1ccc(Nc2ncccc2-c2nc(C)nc3[nH]cnc23)cc1Cl [Example 181, N-(2-Chloro-4-(3-(2-Methyl-9H-Purin-6-yl)Pyridin-2-Ylamino)Phenyl)Acetamide] | 754 | 562 |
| CCS(=O)(=O)c1cnc(Nc2cnc(OC)c(F)c2)c(-c2nc(C)nc(N)n2)c1 [Example 303, 4-(5-(ethylsulfonyl)-2-(5-fluoro-6-methoxypyridin-3-ylamino)pyridin-3-yl)-6-methyl-1,3,5-triazin-2-amine] | 807 | > 10000 |
| COc1ccc(Nc2ncc(-c3ccnnc3)cc2-c2nc(C)nc(N)n2)cn1 [Example 252, 4-(2-(6-Methoxypyridin-3-Ylamino)-5-(Pyridazin-4-yl)Pyridin-3-yl)-6-Methyl-1,3,5-Triazin-2-Amine] | 60 | 151 |
| COc1ccc(Nc2ncc(N3CCN(S(C)(=O)=O)CC3)cc2-c2nc(C)nc3[nH]cnc23)cn1 [Example 99, N-(6-Methoxypyridin-3-yl)-3-(2-Methyl-9H-Purin-6-yl)-5-(4-(Methylsulfonyl)Piperazin-1-yl)Pyridin-2-Amine] | 23 | 204 |
| COc1ncc(Nc2ncc(CN3CCN4C(CCS4(=O)=O)C3)cc2-c2nc(C)nc(N)n2)cc1F (centres unmarked) [Example 383, 4-(5-((1,1-Dioxidohexahydro-5H-Isothiazolo[2,3-A]Pyrazin-5-yl)Methyl)-2-((5-Fluoro-6-Methoxy-3-Pyridinyl)Amino)-3-Pyridinyl)-6-Methyl-1,3,5-Triazin-2-Amine] | 7 | 8 |
| Cc1nc(N)nc(-c2cc([C@@H](C)N3CCN(S(C)(=O)=O)C[C@@H]3C)cnc2Nc2ccc3scnc3c2)n1 [Example 293, N-(3-(4-Amino-6-Methyl-1,3,5-Triazin-2-yl)-5-((R)-1-((S)-2-Methyl-4-(Methylsulfonyl)Piperazin-1-yl)Ethyl)Pyridin-2-yl)Benzo[D]Thiazol-5-Amine] | 4 | 24 |
| COc1ncc(Nc2ncc(C(C)(C)O)cc2-c2cc(N)nc(C)n2)cc1F [Example 345, 2-(5-(6-Amino-2-Methylpyrimidin-4-yl)-6-(5-Fluoro-6-Methoxypyridin-3-Ylamino)Pyridin-3-yl)Propan-2-ol] | 13 | 35 |
| COc1ncc(Nc2ncc(C(OC(=O)c3cccc(Cl)c3)C(C)(C)O)cc2-c2nc(C)nc(N)n2)cc1F (centres unmarked) [Example 351, 1-(5-(4-Amino-6-Methyl-1,3,5-Triazin-2-yl)-6-(5-Fluoro-6-Methoxypyridin-3-Ylamino)Pyridin-3-yl)-2-Hydroxy-2-Methylpropyl 3-Chlorobenzoate] | 9 | 70 |
| COc1ccc(Nc2ncc(CNC(C)(C)C)cc2-c2nc(C)nc3[nH]cnc23)cn1 [Example 134, 5-((tert-butylamino)methyl)-N-(6-methoxypyridin-3-yl)-3-(2-methyl-9H-purin-6-yl)pyridin-2-amine] | 217 | 1250 |
| COc1ccc(Nc2ncc(CNCc3ccncc3)cc2-c2nc(C)nc3[nH]cnc23)cn1 [Example 137, N-(6-methoxypyridin-3-yl)-3-(2-methyl-9H-purin-6-yl)-5-((pyridin-4-ylmethylamino)methyl)pyridin-2-amine] | 40 | 181 |
| COc1ccc(Nc2nc(N3CCCCC3)ncc2-c2nc(C)nc(N)n2)cn1 [Example 123, 4-(4-(6-methoxypyridin-3-ylamino)-2-(piperidin-1-yl)pyrimidin-5-yl)-6-methyl-1,3,5-triazin-2-amine] | 102 | > 10000 |
| Cc1nc(N)nc(-c2cc([C@H](C)N3CCOCC3)cnc2Nc2cnc(Cl)c(NS(=O)(=O)N(C)C)c2)n1 [Example 374, (S)—N-(5-(3-(4-Amino-6-Methyl-1,3,5-Triazin-2-yl)-5-(1-Morpholinoethyl)Pyridin-2-Ylamino)-2-Chloropyridin-3-yl)-N,N-Dimethylaminosulfamide] | 15 | 7 |
| Cc1nc(N)cc(-c2nccnc2Nc2cccc3[nH]ncc23)n1 [Example 112, N-(3-(6-amino-2-methylpyrimidin-4-yl)pyrazin-2-yl)-1H-indazol-4-amine] | 98 | 450 |
| COc1cc(Nc2ncc(CN3CCN(S(C)(=O)=O)C[C@@H]3C)cc2-c2nc(C)nc(N)n2)cnc1Cl [Example 317, (S)-4-(2-(6-Chloro-5-Methoxypyridin-3-Ylamino)-5-((2-Methyl-4-(Methylsulfonyl)Piperazin-1-yl)Methyl)Pyridin-3-yl)-6-Methyl-1,3,5-Triazin-2-Amine] | 18 | 12 |
